Measured values: patent US7118895B2, “Process for producing aglycon by using diglycosidase and flavor-improved food containing the aglycon and converting agent to be used in the process” (Amano Enzyme Inc., priority 2000, dated 2006)

Assays:
[1] = test system: β-Xylosidase derived from pectinase G; experiment: Reactivity toward various isoflavone glycosides (HPLC); type: biochemical; parameters: unit not given here; details: 55 °C, pH 4.0
Procedure: (§1) Diglycosidase was diluted with an acetate buffer of pH 4.0 to prepare a 0.75 AU/mL enzyme solution. As references, a similar operation was conducted using β-glucosidase (manufactured by Fluka) derived from Aspergillus niger, β-glucosidase (manufactured by Sigma) derived from almond, β-xylosidase derived from pectinase G (manufactured by Amano Enzyme Inc.). Each of purified products of isoflavone glycosides (glycitin, acetylglycitin, malonylglycitin, daidzin, acetyldaidzin, malonyldaidzin, genistin, acetylgenistin, malonylgenistin, all manufactured by Nacalai Tesque, Inc.) was dissolved in methanol to prepare each 2 mM substrate solution. The reaction was carried out by mixing 10 μL of a substrate solution, 200 μL of 20 mM acetate buffer (pH 4.0), and 40 μL of each purified enzyme solution at a total liquid volume of 250 μL. The reaction was carried out at 55° C. and isolation of an aglycon isoflavone from an isoflavone glycoside in the reaction mixture was detected by HLPC at 0, 1, 3, and 6 hours of the reaction.
(§2) To the reaction mixture was added 700 μL of ethanol, followed by stirring and ultrasonication. After centrifugation at 15,000 rpm and 4° C. for 10 minutes, the supernatant was filtered through a filter and then the filtrate was applied to HPLC.
(§3) The isoflavone glycoside and aglycon isoflavone contained in the filtrate was separated and detected by a high performance liquid chromatography (HPLC, Shimadzu CLASS LC-10 system) using TOSOH TSK gel ODS-80TM column (manufactured by Tosoh Corporation). […] The absorbance at 260 nm was detected by a UV detector (Shimadzu, SPD-10AV). Using purified products (manufactured by Nacalai Tesque, Inc.) of the above isoflavone glycosides and aglycon isoflavones, the isoflavone glycoside and aglycon isoflavone were quantitatively determined according to a calibration curve method. By the way, unless otherwise stated, the measuring conditions of HPLC herein mean those described in the example.

[2] = test system: β-Glucosidase derived from almond; experiment: as above; type: biochemical; parameters: unit not given here; details: 55 °C, pH 4.0
Procedure: as §1, §2, §3

Crude diglycosidase = experiment: Examination of substrate concentration in the conversion into isoflavone aglycons by diglycosidase using soybean materials; type: biochemical, Penicillium multicolor IAM7153;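 note: percent of the isoflavone family total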
Procedure, shortened: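 Soybean materials (roasted soy flour, soymilk, defatted soybean, concentrated soy protein) at 2–30% (w/v) in 20 mM acetate pH 4.0 were reacted with crude diglycosidase at 55° C with shaking; enzyme solution added was 1.88 AU/mL. Samples taken at 0, 1, 3 and 6 h were ethanol-extracted and analyzed by HPLC.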

COc1cc2c(=O)c(-c3ccc(O)cc3)coc2cc1O[C@@H]1O[C@H](COC(C)=O)[C@@H](O)[C@H](O)[C@H]1O [acetylglycitin, 6″-O-acetylglycitin]
aglycon ([1]; Reaction time 0 h): 0 | glucoside ([1]; Reaction time 0 h): 100 | aglycon ([1]; Reaction time 1 h): 0 | glucoside ([1]; Reaction time 1 h): 100 | aglycon ([1]; Reaction time 3 h): 0 | glucoside ([1]; Reaction time 3 h): 100 | aglycon ([1]; Reaction time 6 h): 0 | glucoside ([1]; Reaction time 6 h): 100 | aglycon ([2]; Reaction time 0 h): 0 | glucoside ([2]; Reaction time 0 h): 100 | aglycon ([2]; Reaction time 1 h): 0 | glucoside ([2]; Reaction time 1 h): 100 | aglycon ([2]; Reaction time 3 h): 0 | glucoside ([2]; Reaction time 3 h): 100 | aglycon ([2]; Reaction time 6 h): 0 | glucoside ([2]; Reaction time 6 h): 100 | Decomposition efficiency: ratio of each glycoside/aglycon within its isoflavone family (Crude diglycosidase; concentrated soybean protein, substrate concentration 2%, heat treatment of enzyme no, reaction time 0 h): 35.8% | Decomposition efficiency: ratio of each glycoside/aglycon within its isoflavone family (Crude diglycosidase; concentrated soybean protein, substrate concentration 2%, heat treatment of enzyme no, reaction time 1 h): 14.3% | Decomposition efficiency: ratio of each glycoside/aglycon within its isoflavone family (Crude diglycosidase; concentrated soybean protein, substrate concentration 2%, heat treatment of enzyme no, reaction time 3 h): 5.3% | Decomposition efficiency: ratio of each glycoside/aglycon within its isoflavone family (Crude diglycosidase; concentrated soybean protein, substrate concentration 2%, heat treatment of enzyme no, reaction time 6 h): 0.0% | Decomposition efficiency: ratio of each glycoside/aglycon within its isoflavone family (Crude diglycosidase; concentrated soybean protein, substrate concentration 2%, heat treatment of enzyme yes, reaction time 6 h): 35.0% | Decomposition efficiency: ratio of each glycoside/aglycon within its isoflavone family (Crude diglycosidase; concentrated soybean protein, substrate concentration 5%, heat treatment of enzyme no, reaction time 0 h): 35.6% | Decomposition efficiency: ratio of each glycoside/aglycon within its isoflavone family (Crude diglycosidase; concentrated soybean protein, substrate concentration 5%, heat treatment of enzyme no, reaction time 1 h): 27.1% | Decomposition efficiency: ratio of each glycoside/aglycon within its isoflavone family (Crude diglycosidase; concentrated soybean protein, substrate concentration 5%, heat treatment of enzyme no, reaction time 3 h): 17.8% | Decomposition efficiency: ratio of each glycoside/aglycon within its isoflavone family (Crude diglycosidase; concentrated soybean protein, substrate concentration 5%, heat treatment of enzyme no, reaction time 6 h): 12.3% | Decomposition efficiency: ratio of each glycoside/aglycon within its isoflavone family (Crude diglycosidase; concentrated soybean protein, substrate concentration 5%, heat treatment of enzyme yes, reaction time 6 h): 34.4% | Decomposition efficiency: ratio of each glycoside/aglycon within its isoflavone family (Crude diglycosidase; concentrated soybean protein, substrate concentration 10%, heat treatment of enzyme no, reaction time 0 h): 35.7% | Decomposition efficiency: ratio of each glycoside/aglycon within its isoflavone family (Crude diglycosidase; concentrated soybean protein, substrate concentration 10%, heat treatment of enzyme no, reaction time 1 h): 31.2% | Decomposition efficiency: ratio of each glycoside/aglycon within its isoflavone family (Crude diglycosidase; concentrated soybean protein, substrate concentration 10%, heat treatment of enzyme no, reaction time 3 h): 26.2% | Decomposition efficiency: ratio of each glycoside/aglycon within its isoflavone family (Crude diglycosidase; concentrated soybean protein, substrate concentration 10%, heat treatment of enzyme no, reaction time 6 h): 23.9% | Decomposition efficiency: ratio of each glycoside/aglycon within its isoflavone family (Crude diglycosidase; concentrated soybean protein, substrate concentration 10%, heat treatment of enzyme yes, reaction time 6 h): 35.2% | Decomposition efficiency: ratio of each glycoside/aglycon within its isoflavone family (Crude diglycosidase; concentrated soybean protein, substrate concentration 20%, heat treatment of enzyme no, reaction time 0 h): 35.9% | Decomposition efficiency: ratio of each glycoside/aglycon within its isoflavone family (Crude diglycosidase; concentrated soybean protein, substrate concentration 20%, heat treatment of enzyme no, reaction time 1 h): 35.4% | Decomposition efficiency: ratio of each glycoside/aglycon within its isoflavone family (Crude diglycosidase; concentrated soybean protein, substrate concentration 20%, heat treatment of enzyme no, reaction time 3 h): 33.6% | Decomposition efficiency: ratio of each glycoside/aglycon within its isoflavone family (Crude diglycosidase; concentrated soybean protein, substrate concentration 20%, heat treatment of enzyme no, reaction time 6 h): 30.5% | Decomposition efficiency: ratio of each glycoside/aglycon within its isoflavone family (Crude diglycosidase; concentrated soybean protein, substrate concentration 20%, heat treatment of enzyme yes, reaction time 6 h): 35.8% | Decomposition efficiency: ratio of each glycoside/aglycon within its isoflavone family (Crude diglycosidase; concentrated soybean protein, substrate concentration 30%, heat treatment of enzyme no, reaction time 0 h): 33.9% | Decomposition efficiency: ratio of each glycoside/aglycon within its isoflavone family (Crude diglycosidase; concentrated soybean protein, substrate concentration 30%, heat treatment of enzyme no, reaction time 1 h): 35.9% | Decomposition efficiency: ratio of each glycoside/aglycon within its isoflavone family (Crude diglycosidase; concentrated soybean protein, substrate concentration 30%, heat treatment of enzyme no, reaction time 3 h): 30.7% | Decomposition efficiency: ratio of each glycoside/aglycon within its isoflavone family (Crude diglycosidase; concentrated soybean protein, substrate concentration 30%, heat treatment of enzyme no, reaction time 6 h): 28.3% | Decomposition efficiency: ratio of each glycoside/aglycon within its isoflavone family (Crude diglycosidase; concentrated soybean protein, substrate concentration 30%, heat treatment of enzyme yes, reaction time 6 h): 33.4% | Decomposition efficiency: ratio of each glycoside/aglycon within its isoflavone family (Crude diglycosidase; defatted soybean, substrate concentration 2%, heat treatment of enzyme no, reaction time 0 h): not detected | Decomposition efficiency: ratio of each glycoside/aglycon within its isoflavone family (Crude diglycosidase; defatted soybean, substrate concentration 2%, heat treatment of enzyme no, reaction time 1 h): not detected | Decomposition efficiency: ratio of each glycoside/aglycon within its isoflavone family (Crude diglycosidase; defatted soybean, substrate concentration 2%, heat treatment of enzyme no, reaction time 3 h): not detected | Decomposition efficiency: ratio of each glycoside/aglycon within its isoflavone family (Crude diglycosidase; defatted soybean, substrate concentration 2%, heat treatment of enzyme no, reaction time 6 h): not detected | Decomposition efficiency: ratio of each glycoside/aglycon within its isoflavone family (Crude diglycosidase; defatted soybean, substrate concentration 2%, heat treatment of enzyme yes, reaction time 6 h): not detected | Decomposition efficiency: ratio of each glycoside/aglycon within its isoflavone family (Crude diglycosidase; defatted soybean, substrate concentration 5%, heat treatment of enzyme no, reaction time 0 h): not detected | Decomposition efficiency: ratio of each glycoside/aglycon within its isoflavone family (Crude diglycosidase; defatted soybean, substrate concentration 5%, heat treatment of enzyme no, reaction time 1 h): not detected | Decomposition efficiency: ratio of each glycoside/aglycon within its isoflavone family (Crude diglycosidase; defatted soybean, substrate concentration 5%, heat treatment of enzyme no, reaction time 3 h): not detected | Decomposition efficiency: ratio of each glycoside/aglycon within its isoflavone family (Crude diglycosidase; defatted soybean, substrate concentration 5%, heat treatment of enzyme no, reaction time 6 h): not detected | Decomposition efficiency: ratio of each glycoside/aglycon within its isoflavone family (Crude diglycosidase; defatted soybean, substrate concentration 5%, heat treatment of enzyme yes, reaction time 6 h): not detected | Decomposition efficiency: ratio of each glycoside/aglycon within its isoflavone family (Crude diglycosidase; defatted soybean, substrate concentration 10%, heat treatment of enzyme no, reaction time 0 h): not detected | Decomposition efficiency: ratio of each glycoside/aglycon within its isoflavone family (Crude diglycosidase; defatted soybean, substrate concentration 10%, heat treatment of enzyme no, reaction time 1 h): not detected | Decomposition efficiency: ratio of each glycoside/aglycon within its isoflavone family (Crude diglycosidase; defatted soybean, substrate concentration 10%, heat treatment of enzyme no, reaction time 3 h): not detected | Decomposition efficiency: ratio of each glycoside/aglycon within its isoflavone family (Crude diglycosidase; defatted soybean, substrate concentration 10%, heat treatment of enzyme no, reaction time 6 h): not detected | Decomposition efficiency: ratio of each glycoside/aglycon within its isoflavone family (Crude diglycosidase; defatted soybean, substrate concentration 10%, heat treatment of enzyme yes, reaction time 6 h): not detected | Decomposition efficiency: ratio of each glycoside/aglycon within its isoflavone family (Crude diglycosidase; roasted soy flour, substrate concentration 2%, heat treatment of enzyme no, reaction time 0 h): 33.6% | Decomposition efficiency: ratio of each glycoside/aglycon within its isoflavone family (Crude diglycosidase; roasted soy flour, substrate concentration 2%, heat treatment of enzyme no, reaction time 1 h): not detected | Decomposition efficiency: ratio of each glycoside/aglycon within its isoflavone family (Crude diglycosidase; roasted soy flour, substrate concentration 2%, heat treatment of enzyme no, reaction time 3 h): not detected | Decomposition efficiency: ratio of each glycoside/aglycon within its isoflavone family (Crude diglycosidase; roasted soy flour, substrate concentration 2%, heat treatment of enzyme no, reaction time 6 h): not detected | Decomposition efficiency: ratio of each glycoside/aglycon within its isoflavone family (Crude diglycosidase; roasted soy flour, substrate concentration 2%, heat treatment of enzyme yes, reaction time 6 h): 34.4% | Decomposition efficiency: ratio of each glycoside/aglycon within its isoflavone family (Crude diglycosidase; roasted soy flour, substrate concentration 5%, heat treatment of enzyme no, reaction time 0 h): 33.8% | Decomposition efficiency: ratio of each glycoside/aglycon within its isoflavone family (Crude diglycosidase; roasted soy flour, substrate concentration 5%, heat treatment of enzyme no, reaction time 1 h): 11.8% | Decomposition efficiency: ratio of each glycoside/aglycon within its isoflavone family (Crude diglycosidase; roasted soy flour, substrate concentration 5%, heat treatment of enzyme no, reaction time 3 h): 7.2% | Decomposition efficiency: ratio of each glycoside/aglycon within its isoflavone family (Crude diglycosidase; roasted soy flour, substrate concentration 5%, heat treatment of enzyme no, reaction time 6 h): not detected | Decomposition efficiency: ratio of each glycoside/aglycon within its isoflavone family (Crude diglycosidase; roasted soy flour, substrate concentration 5%, heat treatment of enzyme yes, reaction time 6 h): 33.8% | Decomposition efficiency: ratio of each glycoside/aglycon within its isoflavone family (Crude diglycosidase; roasted soy flour, substrate concentration 10%, heat treatment of enzyme no, reaction time 0 h): 24.2% | Decomposition efficiency: ratio of each glycoside/aglycon within its isoflavone family (Crude diglycosidase; roasted soy flour, substrate concentration 10%, heat treatment of enzyme no, reaction time 1 h): 16.7% | Decomposition efficiency: ratio of each glycoside/aglycon within its isoflavone family (Crude diglycosidase; roasted soy flour, substrate concentration 10%, heat treatment of enzyme no, reaction time 3 h): 9.7% | Decomposition efficiency: ratio of each glycoside/aglycon within its isoflavone family (Crude diglycosidase; roasted soy flour, substrate concentration 10%, heat treatment of enzyme no, reaction time 6 h): not detected | Decomposition efficiency: ratio of each glycoside/aglycon within its isoflavone family (Crude diglycosidase; roasted soy flour, substrate concentration 10%, heat treatment of enzyme yes, reaction time 6 h): 35.1% | Decomposition efficiency: ratio of each glycoside/aglycon within its isoflavone family (Crude diglycosidase; roasted soy flour, substrate concentration 20%, heat treatment of enzyme no, reaction time 0 h): 31.8% | Decomposition efficiency: ratio of each glycoside/aglycon within its isoflavone family (Crude diglycosidase; roasted soy flour, substrate concentration 20%, heat treatment of enzyme no, reaction time 1 h): 22.9% | Decomposition efficiency: ratio of each glycoside/aglycon within its isoflavone family (Crude diglycosidase; roasted soy flour, substrate concentration 20%, heat treatment of enzyme no, reaction time 3 h): 13.8% | Decomposition efficiency: ratio of each glycoside/aglycon within its isoflavone family (Crude diglycosidase; roasted soy flour, substrate concentration 20%, heat treatment of enzyme no, reaction time 6 h): 10.0% | Decomposition efficiency: ratio of each glycoside/aglycon within its isoflavone family (Crude diglycosidase; roasted soy flour, substrate concentration 20%, heat treatment of enzyme yes, reaction time 6 h): 35.0% | Decomposition efficiency: ratio of each glycoside/aglycon within its isoflavone family (Crude diglycosidase; roasted soy flour, substrate concentration 30%, heat treatment of enzyme no, reaction time 0 h): 35.3% | Decomposition efficiency: ratio of each glycoside/aglycon within its isoflavone family (Crude diglycosidase; roasted soy flour, substrate concentration 30%, heat treatment of enzyme no, reaction time 1 h): 28.4% | Decomposition efficiency: ratio of each glycoside/aglycon within its isoflavone family (Crude diglycosidase; roasted soy flour, substrate concentration 30%, heat treatment of enzyme no, reaction time 3 h): 24.4% | Decomposition efficiency: ratio of each glycoside/aglycon within its isoflavone family (Crude diglycosidase; roasted soy flour, substrate concentration 30%, heat treatment of enzyme no, reaction time 6 h): 13.7% | Decomposition efficiency: ratio of each glycoside/aglycon within its isoflavone family (Crude diglycosidase; roasted soy flour, substrate concentration 30%, heat treatment of enzyme yes, reaction time 6 h): 34.4%
